This note sets out measurements from patent US9453050B2, “Compositions for treating glioma” (GLIA SP Z.O.O., priority 2011, dated 2016).

The test system of data set [1] is rat primary microglia cultures. The data set can be described thus: Phagocytosis of fluorescent beads by GCM-treated microglia. It counts as cell-based. The following applies: 500 μM peptide; FIG. 6B. On the procedure: Microglia cells (1×10^5) were seeded on 24-wells plates and after 24 hours cells were transfected with 25 nM control non-targeting siRNA, and siRNA to αv or β3, or two siRNA together (ON-TARGET siRNA, Dharmacon) using 0.25 μl of DharmaFECT 3 transfection reagent in 0.5 ml culture medium. After 48 h the transfection medium was replaced by G-CM and phagocytic properties of microglia were determined as described. To estimate the silencing efficiency cells were removed from the culture plates by trypsynization and suspended in MACS buffer (PBS, 2 mM EDTA, 0.5% BSA) at final concentration 1×10^5 cells/100 μl. Cell surface expression of the integrins was analysed using primary antibodies to αv or β3 (BD Biosciences) and anti-mouse-Alexa Fluor 647 secondary antibody (Invitrogen). The fluorescent intensity of the labelled cells was analysed with FACSCalibur (Beckton Dickinson). The mean fluorescent intensity was compared with the control siRNA and expressed as the relative change to the control condition for each experimental siRNA.
Phagocytic properties of microglia were determined by incubation of cells with 2 μm fluorescent latex beads (Sigma-Aldrich, Saint Louis, Mo., USA) for 90 min. […] The percentage of cells with none/low (<2 beads per cell), medium (≧2<10) or high (≧10 beads per cell) phagocytic activity was counted. […]

The subject of data set [2] is rat primary microglia cultures. The data set can be described thus: Scratch assay of microglia motility. The following applies: GCM with RGD inhibitor; FIG. 6C. It counts as cell-based. As for the experimental part:
Microglia were platted on a 35 mm Petri dish at the density of 1.5×10^6 cells and after 48 hours the cultures were gently scratched using a pipette tip and microglia cells were cultured under various experimental conditions (control, 100 ng/mL LPS or G-CM). Motility of microglia cells was determined 3 hours after treatment. Migrating cells were visualized by phase-contrast microscopy.
Using the rat lactadherin amino acid sequence, a 7-aa RGD-containing peptide (RGD) was designed as a competitive inhibitor (set forth in SEQ ID NO: 18). A scrambled sequence peptide was used as a control (SCR). Pre-incubation with the chemically synthesized 500 μM RGD peptide, but not with the SCR peptide, prevented transformation of microglia into amoeboid cells following GCM induction (amoeboid cells indicated with arrows) (FIG. 6A).

For data set [3], the system named is phosphorylated FAK, Akt and ERK in microglia cells. Kind of data set: Immunoblotting of phosphorylated kinases in GCM-treated microglia. The following applies: pre-treatment with peptide; FIG. 6E. It counts as cell-based, rat. On the procedure: Whole cell lysates were prepared by scraping the cells into the buffer containing phosphatase and protease inhibitors (20 mM Tris HCl, pH6.8, 137 mM sodium chloride, 25 mM β-glycerophosphate, 2 mM sodium pyrophosphate, 2 mM EDTA, 1 mM sodium orthovanadate, 1% Triton X-100, 10% glycerol, 5 μg/ml leupeptin, 5 μg/ml aprotinin, 2 mM benzamidine, 0.5 mM DTT, 1 mM PMSF). The protein concentration was determined with the Bradford assay (Sigma-Aldrich, Saint Louis, Mo., USA). Protein extracts were separated on SDS-PAGE before electrophoretic transfer onto a nitrocellulose membrane (Amersham Biosciences, Germany) as described (Ellert-Miklaszewska et al. 2005; Sliwa et al. 2007). After blocking with 5% non-fat milk in TBS-T (Tris-buffered saline pH 7.6/0.15% Tween 20) the membranes were incubated with primary antibodies diluted in a blocking buffer overnight and then with relevant secondary antibodies for one hour. Antibodies recognizing phosphorylated and total forms of p38, ERK1/2, JNK, STAT1, STAT3, STATS, AKT, FAK and IκB as well as Cox-2 (all diluted 1:1000) and horseradish peroxidase-conjugated anti-rabbit IgG (diluted 1:2000) were purchased from Cell Signaling Technology (Beverly, Mass., USA); iNOS (diluted 1:2000) from BD Biosciences (Bedford, Mass., USA). Immunocomplexes were visualized by using ECL (Amersham). […]
A general note: Immunoblotting shows a protein as a band on a membrane.

The subject of data set [4] is rat primary microglia cultures. Kind of data set: GCM-induced amoeboid transformation of microglia (F-actin staining). The following applies: pre-incubation with 500 μM peptide; FIG. 6A. The data set is classed as cell-based. On the procedure: Cell culture and treatment. Primary cultures of rat microglia were prepared from 1-day-old Wistar rat pups as described previously (Zawadzka and Kaminska 2003). Briefly, cells were isolated from cerebral cortices by trypsination, mechanically dissociated and plated at the density of 3×10^5 cells/cm^2 in Dulbecco's modified Eagle medium (with Glutamax and high-glucose formula 4.5 g/L, Gibco) supplemented with heat-inactivated 10% fetal bovine serum (Gibco), 100 U/mL penicillin, and 0.1 mg/mL streptomycin on poly-L-lysine coated culture 75 cm^2 flasks. Murine pEGFP-GL261 glioma cells were cultured in DMEM with 10% FBS and antibiotics (50 U/ml penicillin, 50 μg/ml streptomycin). Primary cultures of astrocytes were prepared from cerebral cortex of 2-day-old C57BL/6 newborn mice. Astrocytes were cultured in DMEM media with high glucose supplemented with 10% FBS, 100 U/ml penicillin and 100 μg/ml streptomycin. Culture medium was changed after 3 days and then twice a week. Cell cultures were maintained at 37° C. in humidified 5% CO2/95% air incubator (Heraeus, Hanau, Germany). […]
Cells were washed with a phosphate buffer saline (PBS) and fixed with 2% paraformaldehyde at indicated time periods. […] Morphological alterations were monitored by fluorescent microscopy with excitation 450-490 nm, recorded with 20× objective. […]

For data set [5], the system named is microglia cells. The data set can be described thus: Real-Time PCR of M2 phenotype markers and iNOS in microglia treated with U87-MG GCM plus peptides. It counts as cell-based, mouse. To be noted: 500 μM peptide in GCM, 6 h. On the procedure: (§1) Total RNA (2 μg) isolated from microglia cultures untreated or treated for 6 h with LPS or G-CM was used as a template to generate cDNA. As endogenous control 18S (Hs99999901_s1) rRNA was applied. Gene expression quantification was performed using the Applied Biosystem TaqMan® The real time amplifications were performed in duplicates in a 20 μl reaction volume containing 2×SYBR PCR MasterMix and a set of primers designed using PRIMER EXPRESS software for the following genes: iNOS, COX-2, II1beta, TNF alpha, MMP-2, MMP-9, MMP-14, Arg1, Id1 and c-Myc. The amount of target mRNA was first normalized to the 18S RNA expression level and then to a control. Data were analysed by the Relative Quantification (^ΔΔCt) method using 7500 System SDS software (Applied Biosystems). The expression of each product was normalized to 18S rRNA and is shown as the ratio of the target gene to 18S gene expression, calculated by 2^−ΔΔCt.
U87-MG human glioma cells were plated on 100 mm culture dishes in a total volume of 8 mL culture medium for 24 h. […]
The expression level of genes that were previously identified as markers of the M2 microglia/macrophage phenotype (see FIG. 4.) such as: Arg1, Id1, c-Myc and MMP-14 was determined using Real-Time PCR. Likewise, the expression level of iNOS was determined to evaluate induction of an immune response. […]
Background: In qPCR the cycle at which signal appears reflects the starting amount.

The subject of data set [6] is microglia cells. Kind of data set: qPCR of GCM-induced genes in microglia exposed to GCM of shRNA-expressing C6 glioma cells. The data set is classed as cell-based, rat. The following applies: FIG. 7B. As for the experimental part:
as §1
To investigate the role of identified proteins in GCM-induced activation of microglia cells, stable C6 glioma cell lines expressing shRNAs specific to osteopontin (shSPP1), or a control, negative shRNA (shNeg) were generated. Silencing efficiency was approximately 98.5% (FIGS. 7A and C). Silencing of […] inhibited GCM-induced expression c-Myc and smad7 in microglia cells (FIG. 7B). […]

For TQRGDIF [RGD peptide], the GCM-induced phagocytosis entry in data set [1] was “completely blocked”. The “microglia migration in a scratch assay” value in data set [2] was “completely blocked”. The “activation of phosphorylated FAK, Akt and ERK kinases by GCM” value in data set [3] was “abolished”. The “transformation of microglia into amoeboid cells following GCM induction” value in data set [4] is “prevented”.

On to “DQIGFRT [SCR peptide, reference compound]”, for which the “transformation of microglia into amoeboid cells following GCM induction” value in data set [4] was “not”.

In the case of “DGRGDSV (SYNTHTIC PEPTIDE) [OPN inhibiting peptide]”, the “Id1 expression level (M2 marker)” value in the data set with microglia cells [5] (FIG. 17B-C) is listed as “down-regulated”. The “Arg1 expression level (M2 marker)” value in the data set on microglia cells [5] (vs control peptide, FIG. 17A) was “down-regulated”.

B1: lactadherin shRNA: shRNA to rat lactadherin, oligonucleotides SEQ ID NO: 25 and 26, stably expressed in C6 glioma cells (nucleic acid)
chain 1: GATCCGGATGAAAGCGGAACCGGATTCAAGAGATCCGGTTCCGCTTTCATCCTGTTTTTTGGAAA
chain 2: AGCTTTTCCAAAAAACAGGATGAAAGCGGAACCGGATCTCTTGAATCCGGTTCCGCTTTCATCCG
modifications: the letters are possibly those of the target site
Regarding B1, the “GCM-induced expression c-Myc and smad7 in microglia cells” value in the data set with microglia cells [6] is on record as “inhibited”.
